For 27 compounds, ring closure, isolated yield, ring closure, yield after HPLC and IC50 results are on record in US11053253B2, “Macrocyclic compounds for treatment of medical disorders” (Achillion Pharmaceuticals, Inc., priority 2017, dated 2021).

Test system in one series: not given
Assay: not given
To be noted: from C=CCCCC(=O)NC[C@]12C[C@@H](C(=O)Nc3nc(Br)ccc3C)N[C@]1(C(=O)Cn1nc(C#N)c3cc(-c4cnc(C)nc4)nc(CC=C)c31)C2; rcm bond; 17-membered ring; Grubbs II; toluene; 1.27 mM; 80.0 °C; 16.0 h.
`Cc1ncc(-c2cc3c(C#N)nn4c3c(n2)CC=CCCCC(=O)NC[C@]23C[C@@H](C(=O)Nc5nc(Br)ccc5C)N[C@@]2(C3)C(=O)C4)cn1`: the ring closure, isolated yield came out at 44.8%.

The same series, now with this note: from C=CCCCNC(=O)Oc1ccc2c(C(C)=O)nn(CC(=O)N3[C@H](C(=O)Nc4nc(Br)ccc4C)C[C@@]4(COCC=C)C[C@@H]34)c2c1; rcm bond; 20-membered ring; Grubbs II; toluene; 1.48 mM; 80.0 °C; 16.0 h.
Turning to `CC(=O)c1nn2c3cc(ccc13)OC(=O)NCCCC=CCOC[C@@]13C[C@@H](C(=O)Nc4nc(Br)ccc4C)N(C(=O)C2)[C@@H]1C3`, the ring closure, isolated yield was 4.1%.

The same series, now with this note: from C=CCOCc1ccc(Br)nc1NC(=O)[C@@H]1C[C@@]2(CN(C)CC=C)C[C@H]2N1C(=O)OC(C)(C)C; rcm bond; 15-membered ring; Hoveyda-Grubbs II (extra 5 mg portions); toluene; 10.0 mM; 80.0 °C; 2.0 h.
On to `CN1CC=CCOCc2ccc(Br)nc2NC(=O)[C@@H]2C[C@]3(C[C@H]3N2C(=O)OC(C)(C)C)C1`, for which the ring closure, isolated yield came out at 68%.

Test system in a further series: not given
Assay: not given
To be noted: rcm bond; 20-membered ring; Grubbs II; toluene; 1.6 mM; 80.0 °C.
As for “(4^1R,4^3S,4^5S,Z)-1^3-acetyl-N-(6-bromo-3-methylpyridin-2-yl)-3,14-dioxo-1^1H-6-oxa-4^2,13,15-triaza-1(1,6)-indazola-4(2,5)-bicyclo[3.1.0]hexanacyclopentadecaphan-8-ene-43-carboxamide”, the ring closure, yield after HPLC was 2.1%.

In another series the target is Human Factor D (Homo sapiens (Human), UniProt P00746). Kind of series: Human Factor D Assay. It counts as biochemical. As to conditions: Human Factor D 80 nM, substrate Z-L-Lys-SBzl, DTNB, A405; read-out: IC50 (Stars). In short, it runs like this: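 Serum-purified enzyme (80 nM final) was preincubated with compound 5 min at room temperature in 50 mM Tris, 1M NaCl, pH 7.5. Z-L-Lys-SBzl and DTNB ([…] each, final) were added and A405 followed every 30 s for 30 min; IC50 from nonlinear regression of reaction rates.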
Human Factor D, sequence (P00746 26-253): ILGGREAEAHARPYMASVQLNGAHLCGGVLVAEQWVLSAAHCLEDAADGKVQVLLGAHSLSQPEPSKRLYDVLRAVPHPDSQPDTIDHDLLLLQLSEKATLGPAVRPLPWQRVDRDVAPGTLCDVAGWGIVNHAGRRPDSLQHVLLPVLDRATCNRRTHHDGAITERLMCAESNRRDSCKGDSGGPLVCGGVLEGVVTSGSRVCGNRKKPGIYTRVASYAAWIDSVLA
With `CC(=O)c1nn2c3c(cc(-c4cnc(C)nc4)cc13)CCCCCCC(=O)NC[C@@]13CC(C(=O)N[C@H](C)c4cccc(Cl)c4F)N(C(=O)C2)[C@@H]1C3` (stereo partly drawn) [Compound T-227], the half-maximal inhibitory concentration (IC50) – broadly, the point on the concentration scale where inhibition reaches its midpoint – is less than 1000 nM.
As for `COc1cc(NC(=O)[C@@H]2C[C@]34CNC(=O)CCCCCCc5cc(-c6cnc(C)nc6)cc6c(C(C)=O)nn(c56)CC(=O)N2[C@@H]3C4)nc(Br)c1F` [Compound T-228], the IC50 is less than 1000 nM.
Still for that read-out and setting: under `COc1cc(NC(=O)[C@@H]2C[C@]34CNC(=O)CCCC=CCc5cc(-c6cnc(C)nc6)cc6c(C(C)=O)nn(c56)CC(=O)N2[C@@H]3C4)nc(Br)c1F` [Compound T-229] stands less than 1000 nM; under `CC(=O)c1nn2c3c(cc(-c4cnc(C)nc4)cc13)CCCCCCC(=O)NC[C@@]13C[C@@H](C(=O)Nc4cc(Br)ccc4F)N(C(=O)C2)[C@@H]1C3` [Compound T-230], less than 1000 nM; under `CC(=O)c1nn2c3c(cc(-c4cnc(C)nc4)cc13)CCCCCCC(=O)NC[C@@]13C[C@@H](C(=O)N[C@H](C)CC(C)(C)C)N(C(=O)C2)[C@@H]1C3` [Compound T-231], less than 1000 nM.
As to `CC(=O)c1nn2c3c(cc(-c4cnc(C)nc4)cc13)CCCCCCC(=O)NC[C@@]13C[C@@H](C(=O)N[C@@H](C)c4cccc(Cl)c4F)N(C(=O)C2)[C@@H]1C3` [Compound T-232], the IC50 is less than 1000 nM.
As for `CC(=O)c1nn2c3c(cc(-c4cnc(C)nc4)cc13)CC=CCCCC(=O)NC[C@@]13C[C@@H](C(=O)Nc4cncc(Br)n4)N(C(=O)C2)[C@@H]1C3` [Compound T-233], the IC50 is less than 1000 nM.
In the case of `CC(=O)c1nn2c3c(cc(-c4cnc(C)nc4)cc13)CCCCCCC(=O)NC[C@@]13C[C@@H](C(=O)Nc4cncc(Br)n4)N(C(=O)C2)[C@@H]1C3` [Compound T-234], the concentration for half-maximal inhibition (IC50) was less than 1000 nM.
In the case of `CC(=O)c1nn(CC(=O)N2[C@H]3C[C@@]4(CNC(=O)C(C)(C)C=CCOCc5ccc(C(F)(F)F)nc5NC3=O)C[C@@H]24)c2ccc(-c3cnc(C)nc3)cc12` [Compound T-235], the IC50 is less than 1000 nM.
`CC(=O)c1nn(CC(=O)N2[C@H]3C[C@@]4(CNC(=O)C(C)(C)CCCOCc5ccc(C(F)(F)F)nc5NC3=O)C[C@@H]24)c2ccc(-c3cnc(C)nc3)cc12` [Compound T-236]: the half-maximal inhibitory concentration (IC50) is less than 1000 nM.
Same read-out and setting: in the case of `CC(=O)c1nn2c3c(cc(-c4cnc(C)nc4)cc13)CCCCNC(=O)NC[C@@]13C[C@@H](C(=O)Nc4nc(C(F)(F)F)ccc4C)N(C(=O)C2)[C@@H]1C3` [Compound T-237] it was less than 1000 nM; in that of `CC(=O)c1nn2c3c(cc(-c4cnc(C)nc4)cc13)CCCCCNC(=O)NC[C@@]13C[C@@H](C(=O)Nc4nc(C(F)(F)F)ccc4C)N(C(=O)C2)[C@@H]1C3` [Compound T-238], less than 1000 nM; in that of `CC(=O)c1nn(CC(=O)N2C[C@@]3(F)COCCCCCCCCc4ccc(Br)nc4NC(=O)[C@@H]2C3)c2cnc(-c3cnc(C)nc3)cc12` [Compound T-239], less than 1000 nM.
As for `COCc1ccc(Br)nc1NC(=O)[C@@H]1C[C@]23CNC(=O)CCCC=CCc4cc(-c5cnc(C)nc5)cc5c(C(C)=O)nn(c45)CC(=O)N1[C@@H]2C3` [Compound T-240], the concentration for half-maximal inhibition (IC50) is less than 1000 nM.
As to `COCc1ccc(Br)nc1NC(=O)[C@@H]1C[C@]23CNC(=O)CCCCCCc4cc(-c5cnc(C)nc5)cc5c(C(C)=O)nn(c45)CC(=O)N1[C@@H]2C3` [Compound T-241], the 50% inhibitory concentration (IC50) is less than 1000 nM.
For `CC(=O)c1nn2c3c(cc(-c4cnc(C5CC5)nc4)cc13)CCCCCCC(=O)NC[C@@]13C[C@@H](C(=O)Nc4nc(C(F)(F)F)ccc4C)N(C(=O)C2)[C@@H]1C3` [Compound T-242], the IC50 is less than 1000 nM.
Take `CC(=O)c1nn2c3c(cc(-c4cnc(C)nc4)cc13)CC=CCC[C@H](C)C(=O)N(C)C[C@@]13C[C@@H](C(=O)Nc4nc(C(F)(F)F)ccc4C)N(C(=O)C2)[C@@H]1C3` [Compound T-243]: the half-inhibitory concentration (IC50) is less than 1000 nM.
In the case of `CC(=O)c1nn2c3c(cc(-c4cnc(C)nc4)cc13)CCCCC[C@H](C)C(=O)N(C)C[C@@]13C[C@@H](C(=O)Nc4nc(C(F)(F)F)ccc4C)N(C(=O)C2)[C@@H]1C3` [Compound T-244], the IC50 was less than 1000 nM.
For the compound `CC(=O)c1nn2c3c(cc(-c4cnc5ccnn5c4)cc13)CCCCCCC(=O)NC[C@@]13C[C@@H](C(=O)Nc4nc(C(F)(F)F)ccc4C)N(C(=O)C2)[C@@H]1C3` [Compound T-255], the IC50 was less than 1000 nM.
On the same count and under the same terms, under `CC(=O)c1nn2c3c(cc(-c4cnc5cc(C)nn5c4)cc13)CCCCCCC(=O)NC[C@@]13C[C@@H](C(=O)Nc4nc(C(F)(F)F)ccc4C)N(C(=O)C2)[C@@H]1C3` [Compound T-256] stands less than 1000 nM; under `CC(=O)c1nn2c3c(cc(-c4ccc5nc(C)nn5c4)cc13)CCCCCCC(=O)NC[C@@]13C[C@@H](C(=O)Nc4nc(C(F)(F)F)ccc4C)N(C(=O)C2)[C@@H]1C3` [Compound T-257], less than 1000 nM; under `CC(=O)c1nn2c3c(cc(-c4cnc5cc(C6CC6)nn5c4)cc13)CCCCCCC(=O)NC[C@@]13C[C@@H](C(=O)Nc4nc(C(F)(F)F)ccc4C)N(C(=O)C2)[C@@H]1C3` [Compound T-258], less than 1000 nM.
As to “(41R,43S,45R)-42-(2-(3-acetyl-5-(2- methylpyrimidin-5-yl)-1H-indazol-1- yl)acetyl)-16-bromo-6-methyl-7-thia-42,6- diaza-1(2,3)-pyridina-4(3,5)- bicyclo[3.1.0]hexanacycloundecaphan-10- en-3-one 7,7-dioxide [Compound T-17]”, the concentration for half-maximal inhibition (IC50) was less than 1000 nM.
